Measured values as given in patent US10941157B2, “Pesticidal compositions and uses thereof” (Gilead Apollo, LLC, priority 2015, dated 2021).
In brackets after ≈: the same amount, converted by molar mass.

What was measured:
[1] = system: Botrtyis cinerea (Bc); assay: In vitro pathogen growth inhibition assay, Bc; type: cell-based; conditions: 48 h, ≥90% growth inhibition; 48 hours; vs 2% DMSO control; read-out: Compound Concentration (ppm) sufficient for ≥90% inhibition of Bc
Method in brief: (§1)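 Value reported is the compound concentration reaching ≥90% growth inhibition, from OD readings at 24 and 48 h after blank subtraction, confirmed visually. Inoculum was spores diluted in 17% V8 medium, except Rs, using 1.5 mm mycelial plugs in ¼ PDB; actual compound concentration corrected via OD600.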

[2] = system: Collectotrichum graminicola (Cg); assay: In vitro pathogen growth inhibition assay, Cg; type: cell-based; conditions: 48 h, ≥90% growth inhibition; 48 hours; vs 2% DMSO control; read-out: Compound Concentration (ppm) sufficient for ≥90% inhibition of Cg
Method in brief: as §1

[3] = system: Diplodia maydis (Dm); assay: In vitro pathogen growth inhibition assay, Dm; type: cell-based; conditions: Stenocarpella maydis, 48 h, ≥90% growth inhibition; 48 hours; vs 2% DMSO control; read-out: Compound Concentration (ppm) sufficient for ≥90% inhibition of Dm
Method in brief: (§2)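 Spores in 17% V8 liquid medium, or 1.5 mm Rs mycelial plugs in ¼ PDB, incubated with compound; final concentration checked by OD600 for precipitation. OD readings at 24 and 48 h, blank-subtracted, plus visual ratings; value is concentration giving ≥90% growth inhibition.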

[4] = system: Fusarium moniliforme (Fm); assay: In vitro pathogen growth inhibition assay, Fm; type: cell-based; conditions: Fusarium verticillioides; ≥90% growth inhibition; 48 hours; vs 2% DMSO control; read-out: Compound Concentration (ppm) sufficient for ≥90% inhibition of Fm
Method in brief: as §1

[5] = system: Fusarium virguliforme (Fv); assay: In vitro pathogen growth inhibition assay, Fv; type: cell-based; conditions: ≥90% growth inhibition, 48 hours, vs 2% DMSO control, read-out: Compound Concentration (ppm) sufficient for ≥90% inhibition of Fv
Method in brief: as §2

[6] = system: Phytophthora capsici (Pc); assay: In vitro pathogen growth inhibition assay, Pc; type: cell-based; conditions: 48 h, ≥90% growth inhibition, 48 hours, vs 2% DMSO control, read-out: Compound Concentration (ppm) sufficient for ≥90% inhibition of Pc
Method in brief: as §2

[7] = system: Rhizoctonia solani (Rs); assay: In vitro pathogen growth inhibition assay, Rs (mycelial plugs); type: cell-based; conditions: Rhizoctonia solani, 48 h, ≥90% growth inhibition; mycelial plugs; 48 hours; vs 2% DMSO control; read-out: Compound Concentration (ppm) sufficient for ≥90% inhibition of Rs
Method in brief: as §2

[8] = system: Septoria tritici (St); assay: In vitro pathogen growth inhibition assay, St; type: cell-based; conditions: Zymoseptoria tritici, 48 h, ≥90% growth inhibition; 48 hours; vs 2% DMSO control; read-out: Compound Concentration (ppm) sufficient for ≥90% inhibition of St
Method in brief: as §1

[9] = system: Blumeria graminis f. sp. hordei; assay: Foliar protection test for barley powdery mildew control; type: in vivo; conditions: foliar spray on Hordeum vulgare cv. Perry, inoculated 24 hours after treatment, evaluated 7 days later
Method in brief: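 Protective foliar test: compound atomized onto both leaf surfaces of 6-day-old Hordeum vulgare cv. Perry, followed after 24 h by spore-cloud inoculation from colonized untreated plants. Disease rated on leaves 7 days on, plants held at 20 to 22° C and 70% RH.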

[10] = system: Sphaerotheca fuliginea; assay: Foliar protection for cucumber powdery mildew control; type: in vivo; conditions: foliar spray on Cucumis sativus cv. Straight Eight, inoculated 24 hours after treatment, evaluated 7 days later
Method in brief: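 Protective foliar spray on 10-day-old Straight Eight cucumbers, with S. fuliginea spores dusted from infected stock plants 24 h after treatment. Disease developed at 23–27 °C, 60% RH and a 16 h photoperiod. Leaves were rated for mildew growth after 7 days; test rates 10 ppm or below.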

[11] = system: Mycosphaerella graminicola (synthetic Septoria tritici); assay: Foliar protection test for wheat septoria leaf blotch control; type: in vivo; conditions: foliar spray on Triticum aestivum cv. WinterHawk, inoculated 1 hour after treatment, evaluated 16 days later
[12] = system: Fusarium graminearum; type: in vivo; conditions: spray on flowering Triticum aestivum cv. Samson, inoculated 24 hours after treatment, evaluated 14 days later
[13] = system: Puccinia triticina; assay: Foliar protection test for wheat leaf rust control; type: in vivo; conditions: foliar application to wheat (Triticum aestivum cv. Winterhawk), evaluated 10 days later
[14] = system: Phakopsora pachyrhizi; assay: Foliar protection test for Asian soybean rust control; type: in vivo; conditions: foliar application to soybean (Glycine max AG4832), percent disease area evaluated 14 days later

| Structure (SMILES) | IC90 [1] [µg/mL] | IC90 [2] [µg/mL] | IC90 [3] [µg/mL] | IC90 [4] [µg/mL] | IC90 [5] [µg/mL] | IC90 [6] [µg/mL] | IC90 [7] [µg/mL] | IC90 [8] [µg/mL] | Barley Powdery Mildew Control at a compound concentration of 10 ppm or lower [9] | Cucumber Powdery Mildew Control at a compound concentration of 10 ppm or lower [10] | Septoria Leaf Blotch Control at a compound concentration of 25 ppm or lower [11] | Wheat Fusarium Head Blight Control at a compound concentration of 25 ppm or lower [12] | Wheat Leaf Rust Control at a compound concentration of 10 ppm or lower [13] | Asian Soybean Rust Control at a compound concentration of 25 ppm or lower [14] |
| --- | --- | --- | --- | --- | --- | --- | --- | --- | --- | --- | --- | --- | --- | --- |
| CCOC(=O)c1sc2c(c1C)c(=O)n([C@H](C)C(=O)N(C)C(C)C)c(=O)n2C[C@H](OCCC#N)c1cc(F)ccc1OC [Compound I-229, (R)-ethyl-1-(2-(2-cyanoethoxy)-2-(5-fluoro-2-methoxyphenyl)ethyl)-3-((R)-1-(isopropyl(methyl)amino)-1-oxopropan-2-yl)-5-methyl-2,4-dioxo-1,2,3,4-tetrahydrothieno[2,3-d]pyrimidine-6-carboxylate] | 2 (≈ 3.32 µM) | 2 (≈ 3.32 µM) | 2 (≈ 3.32 µM) | 0.08 (≈ 0.133 µM) | 0.4 (≈ 0.664 µM) | > 50 | 2 (≈ 3.32 µM) | > 50 | AA (≥85% control of barley powdery mildew) | AA (≥85% control of cucumber powdery mildew) | D (<25% control of wheat septoria leaf blotch) | C (from 25 to 49% control of wheat fusarium head blight) | B (from 50 to 69% control of wheat leaf rust) | C (from 25 to 49% control of Asian soybean rust) |
| CCNC(=O)C(C)(C)n1c(=O)c2c(C)c(C(=O)OCC)sc2n(C[C@H](OCCC#N)c2cc(F)ccc2OC)c1=O [Compound I-231, (R)-ethyl-1-(2-(2-cyanoethoxy)-2-(5-fluoro-2-methoxyphenyl)ethyl)-3-(1-(ethylamino)-2-methyl-1-oxopropan-2-yl)-5-methyl-2,4-dioxo-1,2,3,4-tetrahydrothieno[2,3-d]pyrimidine-6-carboxylate] | 2 (≈ 3.4 µM) | 0.4 (≈ 0.68 µM) | 0.4 (≈ 0.68 µM) | 0.08 (≈ 0.136 µM) | 2 (≈ 3.4 µM) | > 50 | 0.08 (≈ 0.136 µM) | ≥ 10 | AA (≥85% control of barley powdery mildew) | AA (≥85% control of cucumber powdery mildew) | C (from 25 to 49% control of wheat septoria leaf blotch) | C (from 25 to 49% control of wheat fusarium head blight) | AA (≥85% control of wheat leaf rust) | A (from 70% to 84% control of Asian soybean rust) |
| CCOC(=O)c1sc2c(c1C)c(=O)n(C(C)(C)C(=O)NC(C)C)c(=O)n2C[C@H](OCCC#N)c1ccccc1OC [Compound I-233, (R)-ethyl-1-(2-(2-cyanoethoxy)-2-(2-methoxyphenyl)ethyl)-3-(1-(isopropylamino)-2-methyl-1-oxopropan-2-yl)-5-methyl-2,4-dioxo-1,2,3,4-tetrahydrothieno[2,3-d]pyrimidine-6-carboxylate] | 0.4 (≈ 0.684 µM) | 0.4 (≈ 0.684 µM) | 0.4 (≈ 0.684 µM) | 0.08 (≈ 0.137 µM) | 0.4 (≈ 0.684 µM) | ≥ 2 | 2 (≈ 3.42 µM) | ≥ 10 | AA (≥85% control of barley powdery mildew) | A (from 70% to 84% control of cucumber powdery mildew) | C (from 25 to 49% control of wheat septoria leaf blotch) | C (from 25 to 49% control of wheat fusarium head blight) | AA (≥85% control of wheat leaf rust) | A (from 70% to 84% control of Asian soybean rust) |
| CCNC(=O)C(C)(C)n1c(=O)c2c(C)c(C(=O)OCC)sc2n(C[C@H](OCCC#N)c2ccccc2OC)c1=O [Compound I-234, (R)-ethyl-1-(2-(2-cyanoethoxy)-2-(2-methoxyphenyl)ethyl)-3-(1-(ethylamino)-2-methyl-1-oxopropan-2-yl)-5-methyl-2,4-dioxo-1,2,3,4-tetrahydrothieno[2,3-d]pyrimidine-6-carboxylate] | 2 (≈ 3.5 µM) | 2 (≈ 3.5 µM) | 2 (≈ 3.5 µM) | 0.08 (≈ 0.14 µM) | 2 (≈ 3.5 µM) | > 50 | 2 (≈ 3.5 µM) | > 10 | AA (≥85% control of barley powdery mildew) | AA (≥85% control of cucumber powdery mildew) | C (from 25 to 49% control of wheat septoria leaf blotch) | C (from 25 to 49% control of wheat fusarium head blight) | AA (≥85% control of wheat leaf rust) | A (from 70% to 84% control of Asian soybean rust) |
| COc1ccccc1[C@H](Cn1c(=O)n([C@@H](C)C(=O)N(C)C(C)C)c(=O)c2c(C)c(-n3nccn3)sc21)OCCC#N [Compound I-239, (S)-2-(1-((R)-2-(2-cyanoethoxy)-2-(2-methoxyphenyl)ethyl)-5-methyl-2,4-dioxo-6-(2H-1,2,3-triazol-2-yl)-1,4-dihydrothieno[2,3-d]pyrimidin-3 (2H)-yl)-N-isopropyl-N-methylpropanamide] | 2 (≈ 3.45 µM) | 2 (≈ 3.45 µM) | 2 (≈ 3.45 µM) | 0.08 (≈ 0.138 µM) | 0.08 (≈ 0.138 µM) | ≥ 10 | 0.08 (≈ 0.138 µM) | ≥ 10 | AA (≥85% control of barley powdery mildew) | AA (≥85% control of cucumber powdery mildew) | D (<25% control of wheat septoria leaf blotch) | C (from 25 to 49% control of wheat fusarium head blight) | AA (≥85% control of wheat leaf rust) | AA (≥85% control of Asian soybean rust) |
| CCc1ccc(F)cc1[C@H](Cn1c(=O)n(C(C)(C)C(=O)NC(C)C)c(=O)c2c(C)c(-n3nccn3)sc21)OCCO [Compound I-246, (R)-2-(1-(2-(2-ethyl-5-fluorophenyl)-2-(2-hydroxyethoxy)ethyl)-5-methyl-2,4-dioxo-6-(2H-1,2,3-triazol-2-yl)-1,4-dihydrothieno[2,3-d]pyrimidin-3 (2H)-yl)-N-isopropyl-2-methylpropanamide] | 0.4 (≈ 0.682 µM) | 0.08 (≈ 0.136 µM) | 0.4 (≈ 0.682 µM) | 0.08 (≈ 0.136 µM) | 0.08 (≈ 0.136 µM) | 10 (≈ 17 µM) | 0.1 (≈ 0.17 µM) | ≥ 2 | A (from 70% to 84% control of barley powdery mildew) | AA (≥85% control of cucumber powdery mildew) | A (from 70% to 84% control of wheat septoria leaf blotch) | B (from 50 to 69% control of wheat fusarium head blight) | A (from 70% to 84% control of wheat leaf rust) | AA (≥85% control of Asian soybean rust) |
